This test has as its system L. major. Briefly: Leishmania (L.) major infection model. It is filed as in vivo, BALB/c mice. How it is done: FIG. 4, comprising FIG. 4A through FIG. 4H, depicts results of experiments showing functional inhibition of Dkk-1 protects the host from chronic inflammation caused by L. major. FIG. 4A depicts a schematic diagram for Dkk-1 inhibitor treatment (10 μg/kg/time) in six-week-old female BALB/c mice. FIG. 4B depicts analysis of parasite burden in the infected foot from each mouse at day 42. FIG. 4C depicts the lesion size in the infected foot from each mouse at day 42. FIG. 4D depicts the cell count of macrophages in the infected hindfoot of mice two weeks after vehicle (n=5) or Dkk-1 inhibitor treatment (n=5) counted by flow cytometry and compared with infected (untreated) and uninfected BALB/c mice (n=3). FIG. 4E depicts results of draining lymph node cells from each mouse (n=5/group) that were stimulated with sLMAG (soluble leishmania antigen) 2 weeks after infection. FIG. 4F depicts results of draining lymph node cells from each mouse (n=5/group) were stimulated with sLMAG 6 weeks after infection. FIG. 4G depicts the CD4 cell percentage in draining lymph nodes from each group was determined by flow cytometry. FIG. 4H depicts CD4 T cell numbers in draining lymph nodes from each group was determined by flow cytometry. A representative of two independent experiments is shown. Student's t-test and one-way-ANOVA analysis with Dunnet's post-hoc test were performed. **, p<0.005, *, p<0.05.
FIG. 17, comprising FIG. 17A and FIG. 17B, depicts results of experiments showing a Dkk-1 monoclonal antibody treatment protects BALB/c mice from chronic inflammation caused by L. major. FIG. 17A depicts the number lymph node cells were in L. major infected BALB/c mice injected with a Dkk-1 monoclonal antibody or isotype control antibody. BALB/c mice were infected with L. major (2 million parasites/animal) on day 0. Dkk-1 mAb or isotype control antibody (100 μg/injection) was injected intraperitoneally into six-week-old female BALB/c mice on day −1, +1, +3, +5, +7, +9, +11, +14 (n=6). On day 14, mice were sacrificed, and their drained lymph node cells were counted. Student's t-test was performed. *,p<0.05. FIG. 17B depicts the lesion size in BALB/c mice injected with a Dkk-1 monoclonal antibody or isotype control antibody. Six-week-old female BALB/c mice were infected with L.major, and DKK-1 mAb was treated intraperitoneally on day −1, +1, +3, +5, +7, +9, +11, +14, +21 and +28. Lesion size for each mouse was measured on day 12, 22, and 32. Student's t-test was performed. *, p<0.05.
L. major WR309 strain (MHOM/IL/79/LRC-L251) was originally isolated from a human case of cutaneous leishmaniasis in Israel and has been maintained through culture and frequent passages in mice to maintain virulence. BALB/c mice were infected with 2×10^6 late stationary promastigotes isolated from a Percoll gradient. For monitoring 2 week and 6 week experiments, Dkk-1 inhibitor (10 mg/kg) or vehicle (50 μl DMSO) was injected on day −1, +1, +3, +5, +7, +9, +11 and weekly afterwards till harvest. Draining lymph nodes, nondraining lymph nodes, and plasma were collected. For ex vivo analysis, soluble Leishmania major antigen (sLMAg) was employed. Single cell suspension of draining and non-draining lymph node cells was incubated with sLMAg (equivalent to 5×10^6 organisms/ml final) for 96 hr. Supernatants were harvested and analyzed by ELISA assays. For depleting platelets, 80 μg of anti-CD42 mAb (Emfret Analytical) was injected intravenously in 100 μl PBS. Equal amounts of isotype-matched control Ab (eBioscience) was used for control group animals. Tissues from mice were harvested on day 3 post-infection for analysis.
To determine the ability of an anti-Dkk-1 monoclonal antibody (Dkk-1 mAb) to protect BALB/c mice against chronic inflammation caused by L. major, 6-week old BALB/c mice were infected with L.major (2 million parasites/animal) on day 0. A Dkk-1 mAb or isotype control antibody (100 μg/injection) was injected intraperitoneally on day −1, +1, +3, +5, +7, +9, +11, +14 (n=6). […]

[1] abbreviates: BALB/c mice, infected foot, 42 days post-infection.
Where [2] appears, read: days 14 and 42 post-infection, ex vivo stimulation of draining lymph node cells with sLMAG.

From patent publication US11135223B2, “Compositions and methods for inhibiting Dkk-1” (YALE UNIVERSITY, priority 2016, dated 2021) come the findings set out here.

In the case of `NCC1CCN(c2nccc(-c3ccc4ccccc4c3)n2)CC1` [WAY-262611, (1-(4-(naphthalen-2-yl)pyrimidin-2-yl)piperidin-4-yl)methanamine], under “BALB/c mice, 10 mg/kg intraperitoneally, 42 days post-infection”, the “reduction of parasite survival” value came to 11.5 fold. Besides, under setting [1], the lesion size entry is “greatly reduced” and the parasite burden entry is on record as “greatly reduced”. Further, the “percentage of CD4 T cells in draining lymph nodes (dLN)” value (FIG. 4G) is “did not reduce”. Moreover, the “number of CD4 T cells in the dLN” value (FIG. 4H) was “reduced”. Under setting [2], the IL-4 production entry is reported as “notably reduced” and the IL-10 production entry is reported as “notably reduced”. Where the note is “infected hindfoot, 14 days after infection”, the “Macrophage accumulation following parasite infection” value is “diminished”.
